Test results published in ChEMBL document CHEMBL1125698, “Using theoretical descriptors in quantitative structure-activity relationships: some toxicological indices” (J Med Chem, 1991).

What was measured:
[1] = Toxicity determined using Tadpole Narcosis Test; conditions: frog
[2] = Toxicity determined using Konemann's Industrial Pollutants Toxicity Test; conditions: fish
[3] = Toxicity determined using Golden Orfe Fish Test; conditions: leuciscus idus
Lithobates pipiens = experiment: Inhibition of Rana pipiens muscle activity.; type: functional, frog, Muscle tissue
[4] = The toxicity of compound was determined using Konemann's Industrial Pollutants Toxicity Test
[5] = Toxicity determined using Microtox Test; type: ADME, Bacteria

c1ccc2ccccc2c1
Log C [1]: -4.225

Cc1cc(Cl)c(Cl)cc1Cl
Log LC50 [2]: 0.94

C=CCCC
Log C [1]: -2.364

CCOC(=O)C(C)C
Log C [1]: -2.3

Clc1cc(Cl)c(Cl)c(Cl)c1
Log LC50 [2]: 0.57

CC(Cl)CCl (stereo not given)
Log LC50 [2]: 3.01

CCCC(=O)OCC
Log C [1]: -2.367

CCC(=O)CC
Log C [1]: -1.861

CCCC(C)=O
Log C [1]: -1.785

Clc1cc(Cl)c(Cl)cc1Cl
Log LC50 [2]: 0.15

Clc1cccc(Cl)c1Cl
Log LC50 [2]: 1.11

c1ccc2c(c1)ccc1ccccc12
Log C [1]: -5.791

CCCCOC(=O)CCCC
Log C [1]: -3.504

CCCCC(=O)OCC
Log C [1]: -2.716

CCCCOCCCC
Log LC50 [3]: -0.303

ClC(Cl)C(Cl)Cl [1,1,2,2-TETRACHLOROETHANE]
Log LC50 [2]: 2.34

ClCCCl [1,2-DICHLOROETHANE]
Log C [1]: -2.374

Clc1cc(Cl)cc(Cl)c1 [1,3,5-TRICHLOROBENZENE]
Log LC50 [2]: 1.26

CCCCCCCO [1-HEPTANOL]
Log LC50 [3]: -0.163 | Log MBC (Lithobates pipiens): 0.2

CCCCCCO [1-HEXANOL]
Log LC50 [3]: -0.315 | Log MBC (Lithobates pipiens): 0.56

CCCCCO [1-PENTANOL]
Log MBC (Lithobates pipiens): 1.2

CCCCC(C)O (stereo not given) [2-HEXANOL]
Log LC50 [3]: -0.359

CCCC(C)O (stereo not given) [2-PENTANOL]
Log C [1]: -1.861

CCC(O)CC [3-PENTANOL]
Log LC50 [2]: 4.05

CCCCOC(C)=O [ACETIC ACID BUTYL ESTER]
Log C [1]: -2.374

CC(=O)OCC(C)C [ACETIC ACID ISOBUTYL ESTER]
Log C [1]: -2.33

CCCCCOC(C)=O [ACETIC ACID PENTYL ESTER]
Log C [1]: -2.727

CCCOC(C)=O [ACETIC ACID PROPYL ESTER]
Log C [1]: -1.969

CC(C)=O [ACETONE]
Log LC50 [3]: -2.259 | Log LC50 [4]: 5.04 | Log C [1]: -0.924 | Log MBC (Lithobates pipiens): 2.6

CC#N [ACETONITRILE]
Log LC50 [3]: -2.227

CC(=O)c1ccccc1 [ACETOPHENONE]
Log C [1]: -2.891

CCO [ALCOHOL]
Log LC50 [2]: 5.38 | Log C [1]: -0.484 | Log MBC (Lithobates pipiens): 2.75

CCC(C)(C)O [AMYLENE HYDRATE]
Log LC50 [3]: -0.907 | Log C [1]: -1.859

Nc1ccccc1 [ANILINE]
Log MBC (Lithobates pipiens): 1.3

COc1ccccc1 [ANISOLE]
Log LC50 [3]: -0.305 | Log C [1]: -2.493

c1ccccc1 [BENZENE]
Log LC50 [3]: -0.417 | Log LC50 [4]: 2.91 | Log C [1]: -2.905

OCc1ccccc1 [BENZYL ALCOHOL]
Log MBC (Lithobates pipiens): 1.3

Oc1ccc2ccccc2c1 [BETANAPHTHOL]
Log MBC (Lithobates pipiens): 0

CBr [BROMOMETHANE]
Log C [1]: -2.263

CCC(C)O (stereo not given) [BUTANOL]
Log LC50 [3]: -1.477 | Log C [1]: -1.433

CCC(C)=O [BUTANONE]
Log LC50 [3]: -1.663 | Log C [1]: 1.401

CCCCO [BUTYL ALCOHOL]
Log LC50 [3]: -1.432 | Log C [1]: -1.463 | Log MBC (Lithobates pipiens): 1.78

CCCCCl [BUTYL CHLORIDE]
Log LC50 [2]: 3.02

ClC(Cl)(Cl)Cl [CARBON TETRACHLORIDE]
Log EC50 [5]: -0.22

Clc1ccccc1 [CHLOROBENZENE]
Log LC50 [2]: 2.23

ClC(Cl)Cl [CHLOROFORM]
Log C [1]: -3.065 | Log MBC (Lithobates pipiens): 1.5

O=C1CCCCC1 [CYCLOHEXANONE]
Log LC50 [3]: -0.66

OC1CCCC1 [CYCLOPENTANOL]
Log LC50 [3]: -0.97

O=C1CCCC1 [CYCLOPENTANONE]
Log LC50 [3]: -1.359

CCOCC [ETHER]
Log LC50 [3]: -1.722 | Log LC50 [4]: 4.46 | Log C [1]: -1.389 | Log MBC (Lithobates pipiens): 1.93

CCOC=O [ETHOXYCARBONYL GROUP]
Log C [1]: -1.111

CCOC(C)=O [ETHYL ACETATE]
Log C [1]: -1.502

CCCl [ETHYL CHLORIDE]
Log C [1]: -1.655

CCOC(=O)CC [ETHYL PROPIONATE]
Log C [1]: -1.898

COC=O [FORMIC ACID METHYL ESTER]
Log C [1]: -1.075

CCCC(O)CC (stereo not given) [HEXAN-3-OL]
Log LC50 [3]: -0.363

CC(C)CO [ISOBUTANOL]
Log LC50 [3]: -1.43

CC(C)O [ISOPROPYL ALCOHOL]
Log LC50 [3]: -2.005 | Log LC50 [4]: 5.07 | Log C [1]: -0.977 | Log MBC (Lithobates pipiens): 2.55

Cc1cccc(C)c1 [M-XYLENE]
Log LC50 [2]: 2.55

Cc1cccc(O)c1 [METACRESOL]
Log LC50 [3]: -0.694

CO [METHYL ALCOHOL]
Log C [1]: 0.17 | Log MBC (Lithobates pipiens): 3.09

ClCCl [METHYLENE CHLORIDE]
Log LC50 [2]: 3.54

O=[N+]([O-])c1ccccc1 [NITROBENZENE]
Log LC50 [3]: -0.263 | Log MBC (Lithobates pipiens): 0.47

C[N+](=O)[O-] [NITROMETHANE]
Log C [1]: -1.08

Cc1ccccc1C [O-XYLENE]
Log LC50 [2]: 2.52 | Log C [1]: -3.44

CCCCCCCCO [OCTANOL]
Log LC50 [3]: -0.594 | Log C [1]: -3.148 | Log MBC (Lithobates pipiens): -0.016

CCCCC [PENTANE]
Log C [1]: -2.649

Oc1ccccc1 [PHENOL]
Log LC50 [3]: -0.256 | Log MBC (Lithobates pipiens): 1

CCCO [PROPANOL]
Log LC50 [3]: -1.972 | Log C [1]: -1.021 | Log MBC (Lithobates pipiens): 2.4

c1ccncc1 [PYRIDINE]
Log MBC (Lithobates pipiens): 1.77

c1ccc2ncccc2c1 [QUINOLINE]
Log MBC (Lithobates pipiens): 0.3

CC(C)(C)O [TERT-BUTANOL]
Log C [1]: -1.429

C1CCOC1 [TETRAHYDROFURAN]
Log LC50 [3]: -1.815

Cc1ccc(C(C)C)c(O)c1 [THYMOL]
Log C [1]: -3.574 | Log MBC (Lithobates pipiens): -0.52

Cc1ccccc1 [TOLUENE]
Log LC50 [2]: 2.87 | Log MBC (Lithobates pipiens): 1

CC(Cl)(Cl)Cl [TRICHLOROETHANE]
Log LC50 [3]: -0.087 | Log LC50 [2]: 2.85

ClC=C(Cl)Cl [TRICHLOROETHYLENE]
Log LC50 [3]: -0.293
